Results taken from ChEMBL document CHEMBL2390855, “Labdane-type diterpenoids from the fruits of Vitex trifolia” (J Nat Prod, 2013).

Columns and labels:
Format in all cases: functional, cell-based
[1] = test system: ZR-75-30; experiment: Cytotoxicity against human ZR75-30 cells after 72 hrs by MTT assay; settings: ZR-75-30, 72 h
[2] = test system: HL-60; experiment: Cytotoxicity against human HL60 cells after 72 hrs by MTT assay; settings: HL-60, 72 h
[3] = test system: HCT-116; experiment: Cytotoxicity against human HCT116 cells after 72 hrs by MTT assay; settings: HCT-116, 72 h
[4] = test system: A549; experiment: Cytotoxicity against human A549 cells after 72 hrs by MTT assay; settings: A549, 72 h

Measured: IC50

CO[C@H]1C[C@@]2(CC[C@@]3(O2)[C@H](C)CC[C@H]2C(C)(C)[C@@H](OC(C)=O)CC[C@@]23C)[C@H](OC)O1 [VITEXTRIFOLIN B]
> 5 µg/mL: all assays above

CC(=O)O[C@@H]1C[C@@H](C)[C@](O)(CCC2=CC(=O)OC2O)[C@@]2(C)CCCC(C)(C)[C@H]12 (stereo partly drawn) [VITEAGNUSIN I]
> 5 µg/mL: all assays above

C[C@@H]1CC=C2C(C)(C)CCC[C@]2(C)[C@@]12CC[C@]1(COC(=O)C1)O2 (relative stereo)
> 5 µg/mL: all assays above

C[C@@H]1CC=C2C(C)(C)CCC[C@]2(C)[C@@]1(O)CCC1=CC(=O)OC1 (relative stereo)
> 5 µg/mL: all assays above

CC(=O)O[C@@H]1CC(C)=C(CCC2=CC(=O)OC2)[C@@]2(C)CCCC(C)(C)[C@H]12 (relative stereo)
> 5 µg/mL: all assays above

CC1=C(CC[C@@H](C)C(=O)CCC2=CC(=O)OC2)C(C)(C)CCC1
> 5 µg/mL: all assays above

CC(=O)O[C@@H]1C[C@@H](C)[C@](O)(CCc2ccoc2)[C@@]2(C)CCCC(C)(C)[C@H]12 [ROTUNDIFURAN]
> 5 µg/mL: all assays above

CO[C@@H]1C[C@@]2(CC[C@@]3(O2)[C@H](C)CC[C@H]2C(C)(C)[C@@H](OC(C)=O)CC[C@@]23C)[C@H](OC)O1 (relative stereo)
> 5 µg/mL: all assays above

CC(=O)O[C@@H]1C[C@@H](C)[C@](O)(CCC2=CC(=O)OC2)[C@@]2(C)CCCC(C)(C)[C@H]12 [VITEXILACTONE]
> 5 µg/mL: all assays above

CC(=O)O[C@@H]1C[C@@H](C)[C@]2(CC[C@]3(COC(=O)C3)O2)[C@@]2(C)CCCC(C)(C)[C@H]12 [PREVITEXILACTONE]
> 5 µg/mL: all assays above

C[C@@H]1C[C@@H](O)[C@H]2C(C)(C)CCC[C@]2(C)[C@@]1(O)CCC1=CC(=O)OC1
> 5 µg/mL: all assays above

C[C@@H]1C[C@@H](O)[C@H]2C(C)(C)CCC[C@]2(C)[C@@]12CC[C@]1(COC(=O)C1)O2 (relative stereo)
> 5 µg/mL: all assays above
